According to US11638716B2, “Compounds, compositions, and methods for the treatment of disease” (F-star Therapeutics, Inc., priority 2017, dated 2023):

Key:
[1] = molecular target: T1, human wtSTING-CTD (with SUMO tag) (Homo sapiens, UniProt Q86WV6, H232R); test: Isothermal calorimetry against human wtSTING-CTD; type: binding; conditions: 25° C., 1.5 mM compound titrated against 132.5 μM protein
T1 construct: human wtSTING-CTD (with SUMO tag)
Protocol: Isothermal Calorimetry was carried out on a MicroCal Itc200 at 25° C.

ISGs/type I IFN response = ISGs/type I IFN response in normal Balb/C mice after intravenous dosing; type: in vivo, mouse; conditions: intravenously 9 mg/kg
STING CTD = molecular target: T2, STING CTD (Homo sapiens, UniProt Q86WV6, H232R); test: Thermal shift assay with STING CTD; type: binding; conditions: 0.1 mg/mL STING CTD, compound 2 mM to 0.05 uM
T2 construct: Thermal shift assay was conducted with 0.1 mg/mL of STING CTD
T2 sequence (Q86WV6 135-379 H232R): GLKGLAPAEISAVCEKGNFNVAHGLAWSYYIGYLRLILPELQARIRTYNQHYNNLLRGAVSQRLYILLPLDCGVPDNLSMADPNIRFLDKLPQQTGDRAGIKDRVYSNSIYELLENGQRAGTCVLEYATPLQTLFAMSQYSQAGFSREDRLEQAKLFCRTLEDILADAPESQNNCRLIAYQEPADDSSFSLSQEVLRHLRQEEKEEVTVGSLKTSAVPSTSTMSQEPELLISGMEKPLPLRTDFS
Protocol: Fluorescence as a function of temperature was recorded using a Real Time PCR machine (Thermo Fisher). The temperature gradient was performed in the range of 25-80° C. with a ramp of 0.2° C. over the course of 60 minutes. Data was analyzed with the Thermal Shift Software (Thermo Fisher) and DSF analysis. The Derivative model was used to fit the fluorescence data to obtain the midpoint temperature for the thermal protein unfolding transition (Tm) using the curve-fitting software Prism.

R232H variant of hSTING = R232H variant of hSTING (Homo sapiens, UniProt Q86WV6); test: IRF/NF-kB reporter cells, STING R232H variant; type: cell-based; conditions: 20 hours
R232H variant of hSTING, sequence (Q86WV6 whole entry, stated change not applied): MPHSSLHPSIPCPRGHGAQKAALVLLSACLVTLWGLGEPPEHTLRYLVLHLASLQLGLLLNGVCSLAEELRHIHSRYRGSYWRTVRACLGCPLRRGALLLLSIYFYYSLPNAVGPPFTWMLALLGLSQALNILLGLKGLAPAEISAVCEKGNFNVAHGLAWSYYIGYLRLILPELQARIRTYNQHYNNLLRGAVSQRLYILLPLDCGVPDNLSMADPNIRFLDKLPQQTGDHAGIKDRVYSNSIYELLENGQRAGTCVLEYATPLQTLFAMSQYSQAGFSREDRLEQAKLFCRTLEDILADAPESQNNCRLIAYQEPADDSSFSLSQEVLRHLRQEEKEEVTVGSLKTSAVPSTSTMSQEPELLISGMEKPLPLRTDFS
Protocol: (§1) FIG. 27 depicts cells stably expressing both or either one of the reporters to measure IRF and NF-kB activity were treated with a range of concentrations of compound 4 or DMSO control for 20 hours. IRF activity was assessed using QUANTI-luc to measure levels of Lucia and NF-kB activity was determined by measure SEAP levels at 620-655 nm. % induction was calculated from fold change in luminescence/absorbance compared to DMSO treated sample. EC50 values are generated by curve fit in Xlfit.
(§2) Cells grown in complete media were treated with various concentrations of a compound of the disclosure or DMSO control. Dual cells carry both secreted embryonic alkaline phosphatase (SEAP) reporter gene under the control of an IFN-β minimal promoter fused to five copies of the NF-kB consensus transcriptional response element to measure NF-kB activity and Lucia reporter gene under the control of an ISG54 minimal promoter to measure IRF activity. After 20 h incubation, IRF activity was assessed using QUANTI-luc to measure levels of Lucia and NF-kB activity was determined by measure SEAP levels at 620-655 nm. % induction was calculated from fold change in luminescence/absorbance compared to DMSO treated sample. EC50 values are generated by curve fit in Xlfit.

NF-kB = NF-kB signaling reporter (SEAP), compound 4 and diastereomers; type: cell-based; conditions: FIG. 34B, 20 hours
Protocol: Cells were treated with various concentrations of compound 4 and two of its diastereomers (4-A and 4-B), or DMSO control for 20 hours. Cells stably expressed one or both of the reporters used to measure NF-kB activity. NF-kB activity was determined by measure SEAP levels at 620-655 nm. % induction was calculated from fold change in luminescence/absorbance compared to DMSO treated sample.

THP1-STING KO cells = test: IRF activity in THP1-STING KO cells; type: cell-based; conditions: compound alone, 20 hours
MYD88 knock out cells = test: IRF/NF-kB reporter activity in MYD88 knock out cells; type: cell-based; conditions: 20 hours
Protocol: as §1, §2

RIG-I = test: IRF/NF-kB reporter cells testing the role of RIG-I; type: cell-based; conditions: 20 hours
Protocol: as §1, with “28” for “27”

T1 sequence (Q86WV6 135-379 H232R): as the sequence (Q86WV6 135-379 H232R) above

Structure (SMILES) | binding to STING (isothermal calorimetry) [1] | upregulation of ISGs/type I IFN response (ISGs/type I IFN response) | binding to STING (thermal shift) (STING CTD) | activity against R232H variant of hSTING (R232H variant of hSTING) | NF-kB signaling induction (NF-kB) | IRF activity in THP1-STING KO cells (THP1-STING KO cells) | activity in MYD88 knock out cells (MYD88 knock out cells) | involvement of RIG-I in the mechanism of action (RIG-I)
N.N.Nc1ncnc2c1ncn2[C@@H]1O[C@@H]2COP(=O)(S)O[C@@H]3[C@H](F)[C@@H](COP(=O)(O)O[C@H]2[C@H]1F)O[C@H]3n1ccc(=O)[nH]c1=O (some centres unmarked) [Compound 3] | bind to STING with high affinity | strongly induced upregulation | bind to STING with high affinity | – | – | – | – | –
CCCCCCCCCCOc1ccc(C(=O)Oc2ccc(CSP3(=O)OC[C@H]4O[C@@H](n5cnc6c(N)ncnc65)[C@H](F)[C@@H]4OP(=O)(O)OC[C@H]4O[C@@H](n5ccc(=O)[nH]c5=O)[C@H](O3)[C@@H]4F)cc2)cc1 (some centres unmarked) [Compound 4] | – | – | – | possess activity | efficacious in inducing NF-kB signaling | did not induced IRF activity | possess activity | not implicated
